Test results taken from US20250122174A1 (Shenzhen Yuanli Shenwan Innovative Medicine Co., Ltd., priority 2022, published 2025).

Target: HPK1 (Homo sapiens (Human), UniProt Q92918)
Test: HPK1 Inhibition Assay (ADP-Glo kinase assay)
Format: biochemical
Conditions: ATP 10 μM
Protocol: A stock solution of 10 mM test compound was prepared in DMSO. The compound was prepared by 5-fold and 10-point serial dilutions with HPK1 kinase assay buffer. The HPK1 kinase assay buffer contained 40 mM Tris, pH 7.5; 20 mM MgCl2, 0.1 mg/ml BSA, and 50 μM DTT. 7.5 ng/μl of Active HPK1 (Promega, V4098) and 0.1 μg/ml MBP substrate protein were added to the reaction system. The final concentration of ATP in the HPK1 kinase reaction system was 10 μM. Serial diluted compounds were transferred to the reaction system and incubated at room temperature for 1 hr. 5 μL of ADP-Glo™ Reagent (Promega, V9101) was added and incubated for 40 min to stop the kinase reaction and deplete the unconsumed ATP. […] The luminescence was measured with a plate-reading luminometer.

Sequence of HPK1 (Q92918 1-346 limits assumed): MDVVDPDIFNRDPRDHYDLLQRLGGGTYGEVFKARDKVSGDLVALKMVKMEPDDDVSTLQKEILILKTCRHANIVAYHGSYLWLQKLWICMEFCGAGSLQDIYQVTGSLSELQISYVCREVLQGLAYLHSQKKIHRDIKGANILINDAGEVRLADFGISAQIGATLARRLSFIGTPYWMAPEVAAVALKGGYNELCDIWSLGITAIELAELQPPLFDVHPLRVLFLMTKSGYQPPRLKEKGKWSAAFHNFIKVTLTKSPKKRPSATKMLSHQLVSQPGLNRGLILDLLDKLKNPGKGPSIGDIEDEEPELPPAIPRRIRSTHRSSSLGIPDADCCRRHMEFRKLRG

IC50 | SMILES
< 100 nM | CC(C)n1ncc2c(N3CCC[C@@H]3CN)c(NC(=O)c3ccc(=O)n(-c4c(F)cccc4F)n3)ccc21 [Example 181, (R)-N-(4-(2-(aminomethyl)pyrrolidin-1-yl)-1-isopropyl-1H-indazol-5-yl)-1-(2,6-difluorophenyl)-6-oxo-1,6-dihydropyridazine-3-carboxamide]
< 100 nM | CC(C)c1nc2c(N3CC[C@@H](CN)C3)c(NC(=O)c3ccc(=O)n(-c4c(F)cccc4F)n3)ccc2n1C [Example 116, (S)-N-(4-(3-(aminomethyl)pyrrolidin-1-yl)-2-isopropyl-1-methyl-1H-benzo[d]imidazol-5-yl)-1-(2,6-difluorophenyl)-6-oxo-1,6-dihydropyridazine-3-carboxamide]
< 100 nM | CC(C)(C)C(C)(C)n1cc2c(N3C[C@H](N)C4(CC4)C3)c(NC(=O)c3ccc(=O)n(-c4c(F)cccc4F)n3)ccc2n1 [Example 246, (R)-N-(4-(7-amino-5-azaspiro[2.4]heptan-5-yl)-2-(2,3,3-trimethylbutan-2-yl)-2H-indazol-5-yl)-1-(2,6-difluorophenyl)-6-oxo-1,6-dihydropyridazine-3-carboxamide]
100 to 1000 nM | COc1cccc(F)c1-c1cccc(C(=O)Nc2ccc3c(nc(C)n3C)c2N2CC[C@H](N)C2)[n+]1[O-] [Example 62, 2-((4-((S)-3-aminopyrrolidin-1-yl)-1,2-dimethyl-1H-benzo[d]imidazol-5-yl)carbamoyl)-6-(2-fluoro-6-methoxyphenyl)pyridine 1-oxide]
< 100 nM | N[C@H]1CN(c2c(NC(=O)c3ccc(=O)n(-c4c(F)cccc4F)n3)ccc3c2cnn3C2CCOCC2)CC12CC2 [Example 251, (R)-N-(4-(7-amino-5-azaspiro[2.4]heptan-5-yl)-1-(tetrahydro-2H-pyran-4-yl)-1H-indazol-5-yl)-1-(2,6-difluorophenyl)-6-oxo-1,6-dihydropyridazine-3-carboxamide]
< 100 nM | N[C@@H]1CCCN(c2c(NC(=O)c3ccc(=O)n(-c4c(F)cccc4F)n3)ccc3c2cnn3[C@H]2CCOC2)C1 [Example 263, N-(4-((R)-3-aminopiperidin-1-yl)-1-((S)-tetrahydrofuran-3-yl)-1H-indazol-5-yl)-1-(2,6-difluorophenyl)-6-oxo-1,6-dihydropyridazine-3-carboxamide]
< 100 nM | CC(C)c1nc2c(N3CC[C@@H](NC(=O)CN)C3)c(NC(=O)c3ccc(=O)n(-c4c(F)cccc4F)n3)ccc2n1C [Example 131, (R)-N-(4-(3-(2-aminoacetamido)pyrrolidin-1-yl)-2-isopropyl-1-methyl-1H-benzo[d]imidazol-5-yl)-1-(2,6-difluorophenyl)-6-oxo-1,6-dihydropyridazine-3-carboxamide]
< 100 nM | C[C@]1(O)CCN(c2cc(-c3cnccc3C#N)ccc2NC(=O)c2ccc(=O)n(-c3c(F)cccc3F)n2)C1 (single isomer, unassigned) [Example 354]
< 100 nM | N[C@@H]1CCN(c2c(NC(=O)c3ccc(=O)n(-c4c(F)cccc4F)n3)ccc3c2cnn3C2CC2)C1 [Example 301, (R)-N-(4-(3-aminopyrrolidin-1-yl)-1-cyclopropyl-1H-indazol-5-yl)-1-(2,6-difluorophenyl)-6-oxo-1,6-dihydropyridazine-3-carboxamide]
< 100 nM | N#Cc1ccncc1-c1ccc(NC(=O)c2ccc(=O)n(-c3c(F)cccc3F)n2)c(N2CCC(N)(CO)CC2)c1 [Example 352, N-(2-(4-amino-4-(hydroxymethyl)piperidin-1-yl)-4-(4-cyanopyridin-3-yl)phenyl)-1-(2,6-difluorophenyl)-6-oxo-1,6-dihydropyridazine-3-carboxamide]
< 100 nM | CC(C)c1nc2c(N3CC(F)(F)C[C@H]3CN)c(NC(=O)c3ccc(=O)n(-c4c(F)cccc4F)n3)ccc2n1C [Example 141, (S)-N-(4-(2-(aminomethyl)-4,4-difluoropyrrolidin-1-yl)-2-isopropyl-1-methyl-1H-benzo[d]imidazol-5-yl)-1-(2,6-difluorophenyl)-6-oxo-1,6-dihydropyridazine-3-carboxamide]
< 100 nM | C[C@]1(N)CCN(c2cc(-c3cnccc3C#N)ccc2NC(=O)c2ccc(=O)n(-c3c(F)cccc3F)n2)C1 [Example 348, (S)-N-(2-(3-amino-3-methylpyrrolidin-1-yl)-4-(4-cyanopyridin-3-yl)phenyl)-1-(2,6-difluorophenyl)-6-oxo-1,6-dihydropyridazine-3-carboxamide]
< 100 nM | N[C@H]1CN(c2c(NC(=O)c3ccc(=O)n(-c4c(F)cccc4F)n3)ccc3nn(C4CC4)cc23)CC12CC2 [Example 336, (R)-N-(4-(7-amino-5-azaspiro[2.4]heptan-5-yl)-2-cyclopropyl-2H-indazol-5-yl)-1-(2,6-difluorophenyl)-6-oxo-1,6-dihydropyridazine-3-carboxamide]
< 100 nM | N#Cc1ccncc1-c1ccc(NC(=O)c2ccc(=O)n(-c3c(F)cccc3F)n2)c(N2CC[C@@](N)(CO)C2)c1 (single isomer, unassigned) [Example 356]
< 100 nM | CC(C)n1ncc2c(N3C[C@@H](C)[C@@H](N)C3)c(NC(=O)c3ccc(=O)n(-c4c(F)cccc4F)n3)ccc21 [Example 180, N-(4-((3R,4R)-3-amino-4-methylpyrrolidin-1-yl)-1-isopropyl-1H-indazol-5-yl)-1-(2,6-difluorophenyl)-6-oxo-1,6-dihydropyridazine-3-carboxamide]
< 100 nM | CC1(C)CN(c2c(NC(=O)c3ccc(=O)n(-c4c(F)cccc4F)n3)ccc3c2cnn3[C@H]2CCOC2)C[C@@H]1N [Example 269, N-(4-((R)-4-amino-3,3-dimethylpyrrolidin-1-yl)-1-((S)-tetrahydrofuran-3-yl)-1H-indazol-5-yl)-1-(2,6-difluorophenyl)-6-oxo-1,6-dihydropyridazine-3-carboxamide]
< 100 nM | C[C@H]1CN(c2c(NC(=O)c3ccc(=O)n(-c4c(F)cccc4F)n3)ccc3nn(C(C)(C)C)cc23)C[C@@H]1N [Example 238, N-(4-((3R,4S)-3-amino-4-methylpyrrolidin-1-yl)-2-(tert-butyl)-2H-indazol-5-yl)-1-(2,6-difluorophenyl)-6-oxo-1,6-dihydropyridazine-3-carboxamide]
< 100 nM | C[C@@H]1CN(c2c(NC(=O)c3ccc(=O)n(-c4c(F)cccc4F)n3)cc(F)c3c2cnn3C)C[C@@H]1N [Example 170, N-(4-((3R,4R)-3-amino-4-methylpyrrolidin-1-yl)-7-fluoro-1-methyl-1H-indazol-5-yl)-1-(2,6-difluorophenyl)-6-oxo-1,6-dihydropyridazine-3-carboxamide]
< 100 nM | CC(C)c1nc2c(N3C[C@H](N)C4(COC4)C3)c(NC(=O)c3ccc(=O)n(-c4c(F)cccc4F)n3)ccc2n1C [Example 113, (R)-N-(4-(8-amino-2-oxa-6-azaspiro[3.4]octan-6-yl)-2-isopropyl-1-methyl-1H-benzo[d]imidazol-5-yl)-1-(2,6-difluorophenyl)-6-oxo-1,6-dihydropyridazine-3-carboxamide]
< 100 nM | CC(C)n1cc2c(N3C[C@@H]4C[C@H]3CN4)c(NC(=O)c3ccc(=O)n(-c4c(F)cccc4F)n3)cc(F)c2n1 [Example 233, N-(4-((1S,4S)-2,5-diazabicyclo[2.2.1]heptan-2-yl)-7-fluoro-2-isopropyl-2H-indazol-5-yl)-1-(2,6-difluorophenyl)-6-oxo-1,6-dihydropyridazine-3-carboxamide]
< 100 nM | CC(C)n1cnc2c(N3C[C@@H](C)[C@@H](N)C3)c(NC(=O)c3ccc(=O)n(-c4c(F)cccc4F)n3)ccc21 [Example 154, N-(4-((3R,4R)-3-amino-4-methylpyrrolidin-1-yl)-1-isopropyl-1H-benzo[d]imidazol-5-yl)-1-(2,6-difluorophenyl)-6-oxo-1,6-dihydropyridazine-3-carboxamide]
< 100 nM | CC(C)n1ncc2c(N3CC(N)C4(COC4)C3)c(NC(=O)c3ccc(=O)n(-c4c(F)cccc4F)n3)ccc21 (stereo not drawn) [Example 206, N-(4-(8-amino-2-oxa-6-azaspiro[3.4]octan-6-yl)-1-isopropyl-1H-indazol-5-yl)-1-(2,6-difluorophenyl)-6-oxo-1,6-dihydropyridazine-3-carboxamide]
< 100 nM | COc1cccc(F)c1-c1nccc(C(=O)Nc2ccc3c(nc(CS(C)(=O)=O)n3C)c2N2CC[C@@H](N)C2)c1F [Example 165, N-(4-((R)-3-aminopyrrolidin-1-yl)-1-methyl-2-((methylsulfonyl)methyl)-1H-benzo[d]imidazol-5-yl)-3-fluoro-2-(2-fluoro-6-methoxyphenyl)isonicotinamide]
< 100 nM | N[C@H]1CN(c2c(NC(=O)c3ccc(=O)n(-c4c(F)cccc4F)n3)ccc3c2cnn3[C@H]2CCOC2)CC12CC2 [Example 249, 1-(2,6-difluorophenyl)-N-{4-[(7R)-7-amino-5-azaspiro[2.4]heptan-5-yl]-1-[(3S)-tetrahydro-3-furyl]indazol-5-yl}-6-oxo-1,2-diazine-3-carboxamide]
< 100 nM | CC(C)n1cc2c(N3CC[C@@H](CN)C3)c(NC(=O)c3ccc(=O)n(-c4c(F)cccc4F)n3)cc(F)c2n1 [Example 221, (S)-N-(4-(3-(aminomethyl)pyrrolidin-1-yl)-7-fluoro-2-isopropyl-2H-indazol-5-yl)-1-(2,6-difluorophenyl)-6-oxo-1,6-dihydropyridazine-3-carboxamide]
< 100 nM | Cc1nc2c(N3CCNC4(CC4)C3)c(NC(=O)c3ccc(=O)n(-c4c(F)cccc4F)n3)ccc2n1C [Example 81, 1-(2,6-difluorophenyl)-N-(1,2-dimethyl-4-(4,7-diazaspiro[2.5]octan-7-yl)-1H-benzo[d]imidazol-5-yl)-6-oxo-1,6-dihydropyridazine-3-carboxamide]

SMILES | IC50
COCCn1c(C)nc2c(N3CCC[C@H]3CN)c(NC(=O)c3ccnn(-c4c(F)cccc4F)c3=O)ccc21 [Example 45] | < 100 nM
